CCCCc1oc2ccc(NS(C)(=O)=O)cc2c1C(=O)c1ccc(OCCCN(CCCC)CCCC)cc1.Cl
solubility (mole fraction)
Details | in ethanol | in isopropanol | in methanol | in n-butanol | in n-propanol | in water
298.15 K | 0.00418 | 0.000681 | 0.0556 | 0.00177 | 0.00275 | 2.71e-05
303.15 K | 0.00461 | 0.000838 | 0.0592 | 0.00209 | 0.00353 | 2.73e-05
308.15 K | 0.00535 | 0.00106 | 0.061 | 0.00261 | 0.00433 | 3.09e-05
313.15 K | 0.00818 | 0.00119 | 0.077 | 0.00352 | 0.00563 | 3.57e-05
318.15 K | 0.0159 | 0.00185 | 0.0919 | 0.00509 | 0.00892 | 4.49e-05
323.15 K | 0.0362 | 0.00293 | 0.119 | 0.00805 | 0.0159 | 6.11e-05

Reference: BigSolDB 2.1
